Non-standard residues stand in square brackets, D forms with d. No end group written: not given here. Cit = NC(=O)NCCC[C@H](N)C(=O)O; Nle = CCCC[C@H](N)C(=O)O
B1: MFRGWQ (SEQ ID NO:21) (peptide)
peptide: MFRGWQ
B2: MW(Cit)GWQ (SEQ ID NO:25) (peptide)
peptide: MW[Cit]GWQ
B3: MWRAWQ (SEQ ID NO:5) (peptide)
peptide: MWRAWQ
B4: MWRWQ (SEQ ID NO:6) (peptide)
peptide: MWRWQ
B5: MWRGFQ (SEQ ID NO:7) (peptide)
peptide: MWRGFQ
B6: MWRGGQ (SEQ ID NO:26) (peptide)
peptide: MWRGGQ
B7: MWRGWN (SEQ ID NO:22) (peptide)
peptide: MWRGWN
B8: (NorL)WRGWQ (SEQ ID NO:23) (peptide)
peptide: [Nle]WRGWQ
B9: GWRGWQ (SEQ ID NO:8) (peptide)
peptide: GWRGWQ
B10: FQRHGI (SEQ ID NO:29) (peptide)
peptide: FQRHGI
B11: WNRHGI (SEQ ID NO:12) (peptide)
peptide: WNRHGI
B12: WQ(Cit)HGI (SEQ ID NO:27) (peptide)
peptide: WQ[Cit]HGI
B13: WQRAGI (SEQ ID NO:28) (peptide)
peptide: WQRAGI
B14: WQRHAI (SEQ ID NO:11) (peptide)
peptide: WQRHAI
B15: WQRHI (SEQ ID NO:33) (peptide)
peptide: WQRHI
B16: WQRHGV (SEQ ID NO:10) (peptide)
peptide: WQRHGV
B17: WQRHGL (SEQ ID NO:9) (peptide)
peptide: WQRHGL

Test system: human IgG
Test: not given
Type: binding
Conditions: peptide on Toyopearl AF-amino-650M, 30 min, room temperature
Protocol: (§1) Measurement of IgG binding by peptide-based chromatographic adsorbents: For initial studies, 35 mg of MWRGWQ (SEQ ID NO:2)-Toyopearl, RHLGWF (SEQ ID NO:3)-Toyopearl, WQRHGI (SEQ ID NO:1)-Toyopearl, GWLHQR (SEQ ID NO:4)-Toyopearl, and HWRGWV (SEQ ID NO:18)-Toyopearl (control) resins were equilibrated in PBS pH 7.4, reaching a swollen volume of 0.1 mL, and subsequently incubated with 1 mg/mL IgG in 0.205 mg/mL CHO cell culture supernatant for 30 minutes. The resins were subsequently washed several times with PBS to remove non-specifically bound proteins. Elution was performed with 100 mM glycine buffer pH 2.5. Flowthrough and elution fractions were collected and analyzed by SDS PAGE under reducing conditions. The resulting gels were stained with Coomassie staining. Further, 25 mg of the adsorbents MWRGWQ (SEQ ID NO:2)-Toyopearl, NIFRGWQ (SEQ ID NO:21)-Toyopearl, MWRAWQ (SEQ ID NO:5)-Toyopearl, MWRGFQ (SEQ ID NO:7)-Toyopearl, MWRGWN (SEQ ID NO:22)-Toyopearl, (NorL) WRGWQ (SEQ ID NO:23)-Toyopearl, MGRGWQ (SEQ ID NO:24)-Toyopearl, MWRWQ (SEQ ID NO:6)-Toyopearl, MWRGGQ (SEQ ID NO:26)-Toyopearl, GWRGWQ (SEQ ID NO:8)-Toyopearl, WQRHGI (SEQ ID NO:1)-Toyopearl, WNRHGI (SEQ ID NO:12)-Toyopearl, WQRAGI (SEQ ID NO:28)-Toyopearl, WQRHAI (SEQ ID NO:11)-Toyopearl, WQRHGL (SEQ ID NO:9)-Toyopearl, FQRHGI (SEQ ID NO:29)-Toyopearl, and WQRHGV (SEQ ID NO:10)-Toyopearl resins were equilibrated in PBS pH 7.4, reaching a swollen volume of 0.1 mL, and subsequently incubated with 1 mg/mL IgG in PBS at pH 7.4 for 30 minutes. The amount of unbound IgG in the supernatant samples was quantified by Bradford assay and utilized to determine the IgG binding % by the peptide variants.
A limited library of residue-by-residue changes confirmed the importance of each residue in peptides WQRHGI (SEQ ID NO:1) and MWRGWQ (SEQ ID NO:2) in reducing the binding energy between the peptide and the IgG target. […] This was accomplished by designing and constructing an ensemble of 20 variants of peptides WQRHGI (SEQ ID NO:1) and MWRGWQ (SEQ ID NO:2). Selected residues in positions 1-6 were mutated. The peptide variants were synthesized directly on Toyopearl AF-amino-650M resin via Fmoc/tBu chemistry. The resulting adsorbents were incubated with a solution of human IgG at 2 mg/mL at a ratio of 1 mL of resin per 3.5 mL of solution for 30 min at room temperature. The residual concentration of IgG in solution was determined by Bradford concentration assay of the supernatants and utilized to calculate the amounts of bound IgG per volume of resin; Table 7 reports the % binding, defined as mg IgG bound by variant/mg IgG bound by original sequence (either WQRHGI (SEQ ID NO:1) or MWRGWQ (SEQ ID NO:2))×100%, of each sequence variant.

First: (NorL)WRGWQ ([Nle]WRGWQ) [ΛWRGWQ, Λ represents Nor-Leucine]
Second: FQRHGI
The “% Binding (mg IgG bound by variant/mg IgG bound by original sequence × 100%)” value of the first is higher: 74.66% for the first, 37.18% for the second.

Going from GWRGWQ to MFRGWQ, the “% Binding (mg IgG bound by variant/mg IgG bound by original sequence × 100%)” value falls from 78.37% to 56.75%.

First: MW(Cit)GWQ (MW[Cit]GWQ) [MWχGWQ]
Second: MWRAWQ
The “% Binding (mg IgG bound by variant/mg IgG bound by original sequence × 100%)” value of the first is lower: 0.48% for the first, 96.96% for the second.

Going from MWRGFQ [MWRGEQ] to MWRGGQ, the “% Binding (mg IgG bound by variant/mg IgG bound by original sequence × 100%)” value falls from 89.19% to 26.00%.

Going from MWRGWN to MWRWQ, the “% Binding (mg IgG bound by variant/mg IgG bound by original sequence × 100%)” value rises from 18.90% to 91.55%.

Going from WNRHGI to WQ(Cit)HGI (WQ[Cit]HGI) [WQχHGI], the “% Binding (mg IgG bound by variant/mg IgG bound by original sequence × 100%)” value falls from 77.43% to 0.95%.

Going from WQRAGI to WQRHAI, the “% Binding (mg IgG bound by variant/mg IgG bound by original sequence × 100%)” value rises from 62.80% to 95.43%.

Compared with WQRHGL, WQRHGV is lower in “% Binding (mg IgG bound by variant/mg IgG bound by original sequence × 100%)” value: 99.09% for the first, 96.04% for the second.

With WQRHI the “% Binding (mg IgG bound by variant/mg IgG bound by original sequence × 100%)” value was 86.89%.

For MGRGWQ, the “% Binding (mg IgG bound by variant/mg IgG bound by original sequence × 100%)” value was “Undetected”.

Test system: host cell protein (HCP)
Test: not given
Conditions: literature value; cited from earlier work

In the case of Ac-HW[Cit]GWV, the “HCP LRV” value is listed as 2.07.

Target: human polyclonal IgG (human)
Test: batch incubation of peptide-Toyopearl resin with human IgG, Bradford of unbound IgG; mg IgG bound relative to MWRGWQ
Conditions: not given

Compared with B1, B2 is lower in % Binding: 56.8% for the first, 0.48% for the second.

Going from B3 to B4, the % Binding falls from 97% to 91.5%.

First: B5
Second: B6
The % Binding of the first is higher: 89.2% for the first, 26% for the second.

Compared with B7, B8 is higher in % Binding: 18.9% for the first, 74.7% for the second.

For B9, the % Binding was 78.4%.

Test system: human polyclonal IgG in CHO-S cell culture fluid
Test: Static purification of IgG from CHO cell culture supernatant on peptide-Toyopearl resins, SDS-PAGE densitometry
Conditions: Gel A, lane FT (flow-through)
Protocol: as §1
Characterization of IgG-binding peptide variants WQRHGI (SEQ ID NO:1), MWRGWQ (SEQ ID NO:2), RHLGWF (SEQ ID NO:3), and GWLHQR (SEQ ID NO:4) in competitive conditions: The four selected sequence variants were tested for their ability to purify human IgG from a CHO cell culture supernatant and found largely to mirror their in silico predictions. Even though they seemed to underperform in silico, RHLGWF (SEQ ID NO:3) and GWLHQR (SEQ ID NO:4) were tested alongside WQRHGI (SEQ ID NO:1) and MWRGWQ (SEQ ID NO:2) in these conditions in order to confirm their ability to bind IgG and examine their selectivity as predicted in silico. The feedstock was prepared by spiking human polyclonal IgG into a clarified null CHO-S cell culture fluid to obtain an IgG concentration of 1 mg/mL and a CHO HCP concentration of 0.205 mg/mL. An aliquot of 500 μL was loaded onto each peptide adsorbent in static conditions for 30 min. Following a washing step with PBS to remove loosely bound proteins, a first elution step was conducted using 0.1 M glycine buffer pH 2.5 to remove all bound proteins. Flow through fractions and pH 2.5 elution fractions were loaded neat and analyzed by SDS PAGE (FIGS. 6A-6B). The values of IgG purity in the eluted fractions were determined by densitometric analysis of the corresponding lanes on the gels, and are reported in Table 9.

For RHLGWF, the “% Purity (IgG over total proteins)” value was 100.00%.

Same assay, conditions: Gel A, lane R (pH 2.5)

For RHLGWF, the “% Purity (IgG over total eluted proteins)” value was 52.28%.

Same assay, conditions: competitive conditions, CHO cell culture supernatant

With RHLGWF the IgG yield was “high IgG yield”.

Same assay, conditions: competitive conditions, in vitro

With RHLGWF the “selectivity for IgG over HCPs” value was “non-selective”.

Target: human polyclonal IgG (human)
Test: batch incubation of peptide-Toyopearl resin with human IgG, Bradford of unbound IgG; mg IgG bound relative to WQRHGI
Conditions: not given

Going from B10 to B11, the % Binding rises from 37.2% to 77.4%.

First: B12
Second: B13
The % Binding of the first is lower: 0.95% for the first, 62.8% for the second.

Compared with B14, B15 is lower in % Binding: 95.4% for the first, 86.9% for the second.

Compared with B16, B17 is higher in % Binding: 96% for the first, 99.1% for the second.

From patent publication US20230399358A1, “IMMUNOGLOBULIN PURIFICATION PEPTIDES AND THEIR USE” (North Carolina State University, priority 2019, published 2023)
